Here are results for 25 compounds from PubChem BioAssay (NCI).

Structures are written as SMILES.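 In this assay, cells in 96-well plates receive the compound at five concentrations for 48 hours. Endpoints are linearly interpolated between the surrounding concentrations. Definition used: TGI = concentration required for complete inhibition of growth.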

The subject of one assay is OVCAR-4 ovarian. The assay is described as follows: NCI tumour cell line growth inhibition, 48 h.
`COc1ccc(-c2cc(O)c3nc4ccccc4n3c2)cc1`: the TGI is more than 100 µM.

For `CCOC(=O)c1csc(NC(=O)CN2CCOCC2)n1`, the TGI was more than 100 µM.

Regarding `CC(=O)NC(Cc1ccc(O)cc1)C(=O)O` (stereo not given), the TGI was more than 100 µM.

In turn, `Cc1ccc(N=NC(=Nc2ccccc2)c2ccc(N(CCC#N)CCC#N)cc2)cc1` gave a TGI of more than 100 µM.

`O=c1ccc(-c2ccccc2)n[nH]1` had a TGI of more than 100 µM.

`CC(=O)O[C@@H]1[C@H](C(C)C)[C@@H](OC(C)=O)C/C(C)=C/CC[C@]2(C)O[C@@H]12`: the TGI was more than 100 µM.

`C[C@@H]1CC[C@]2(C(=O)O)CC[C@]3(C)C(=CC[C@@H]4[C@@]5(C)CC[C@H](O)C(C)(C)[C@@H]5CC[C@]43C)[C@@H]2[C@]1(C)O` displayed a TGI of 30.5 µM.

Take `O=C(N/N=C(/COc1ccc(Cl)cc1)N=Cc1ccncc1)c1ccncc1`: the TGI is more than 100 µM.

`C1CN(c2nc3c(nnc4nc(N5CCOCC5)sc43)s2)CCO1` gave a TGI of more than 100 µM.

Regarding `COc1ccc2cc(NC(=O)N/N=C\c3ccc([N+](=O)[O-])cc3)ccc2c1`, the TGI stood at 5.74 µM.

On to `COc1ccc(N/N=C2\CCOc3ccc(C)cc3C2=O)cc1`, for which the TGI was more than 100 µM.

Compound `ClCCN1CCC2(CC1)SSC1(CCN(CCCl)CC1)S2` gave a TGI of more than 100 µM.

For `Nc1nc(SCCc2ccccc2)c2[nH]cnc2n1`, the TGI was more than 100 µM.

Turning to `CCOC(=O)C(SCCO)C(C(=O)OCC)n1cnc2c(=O)[nH]c(NC(C)=O)nc21` (stereo not given), the TGI is more than 100 µM.

As for `COCO[C@@H]1C[C@H]2C(=O)Nc3ccccc3C(=O)N2C1`, the TGI was more than 100 µM.

With `Cc1ccc(Cl)c2[nH]c(-c3ccccc3)cc(=O)c12`, the TGI is more than 100 µM.

Turning to `CC(C)(C)OC(=O)NCCCCC1NC(=O)[C@@H]2Cc3c([nH]c4ccccc34)C(C3CCCCC3)N2C1=O` (stereo not given in full), the TGI is more than 100 µM.

`O=C1CCCc2cc3c(cc21)CC1(Cc2ccccc2C1)C3` showed a TGI of 63.9 µM.

Compound `COC(=O)c1ccccc1CC1Cc2ccc3c(c2C1=O)CCCC3` (stereo not given) gave a TGI of more than 79.4 µM.

On to `CC1(C)OC(=O)N(c2ccccc2)C12C=Cc1cc([N+](=O)[O-])cc([N+](=O)[O-])c1O2` (stereo not given), for which the TGI was more than 100 µM.

The subject of another assay is HS 578T breast. In words: NCI tumour cell line growth inhibition, 48 h.
Take `COc1ccc(-c2cc(O)c3nc4ccccc4n3c2)cc1`: the TGI is more than 100 µM.

Consider `CCOC(=O)c1csc(NC(=O)CN2CCOCC2)n1`, for which the TGI was more than 100 µM.

`CC(=O)NC(Cc1ccc(O)cc1)C(=O)O` (stereo not given): the TGI was more than 100 µM.

`Cc1ccc(N=NC(=Nc2ccccc2)c2ccc(N(CCC#N)CCC#N)cc2)cc1` registered a TGI of more than 100 µM.

`O=c1ccc(-c2ccccc2)n[nH]1` had a TGI of more than 100 µM.

The compound `CC(=O)O[C@@H]1[C@H](C(C)C)[C@@H](OC(C)=O)C/C(C)=C/CC[C@]2(C)O[C@@H]12` had a TGI of more than 100 µM.

In turn, `C[C@@H]1CC[C@]2(C(=O)O)CC[C@]3(C)C(=CC[C@@H]4[C@@]5(C)CC[C@H](O)C(C)(C)[C@@H]5CC[C@]43C)[C@@H]2[C@]1(C)O` returned a TGI of 16.1 µM.

Turning to `O=C(N/N=C(/COc1ccc(Cl)cc1)N=Cc1ccncc1)c1ccncc1`, the TGI was more than 100 µM.

`C1CN(c2nc3c(nnc4nc(N5CCOCC5)sc43)s2)CCO1`: the TGI was more than 100 µM.

In turn, `COc1ccc2cc(NC(=O)N/N=C\c3ccc([N+](=O)[O-])cc3)ccc2c1` came in with a TGI of more than 100 µM.

The compound `COc1ccc(N/N=C2\CCOc3ccc(C)cc3C2=O)cc1` registered a TGI of more than 100 µM.

As to `ClCCN1CCC2(CC1)SSC1(CCN(CCCl)CC1)S2`, the TGI is more than 100 µM.

`Nc1nc(SCCc2ccccc2)c2[nH]cnc2n1` registered a TGI of more than 100 µM.

`Cc1nc2n(c1/C=C1/C(=O)Nc3cccc(Cl)c31)CCS2` gave a TGI of 53.9 µM.

In turn, `CCOC(=O)C(SCCO)C(C(=O)OCC)n1cnc2c(=O)[nH]c(NC(C)=O)nc21` (stereo not given) registered a TGI of more than 100 µM.

Compound `c1ccc(-c2nc(-c3ccccc3SSc3ccccc3-c3nc(-c4ccccc4)nn3-c3ccccc3)n(-c3ccccc3)n2)cc1` came in with a TGI of more than 100 µM.

Take `COCO[C@@H]1C[C@H]2C(=O)Nc3ccccc3C(=O)N2C1`: the TGI was more than 100 µM.

In turn, `Cc1ccc(Cl)c2[nH]c(-c3ccccc3)cc(=O)c12` yielded a TGI of more than 100 µM.

As to `CC(C)(C)OC(=O)NCCCCC1NC(=O)[C@@H]2Cc3c([nH]c4ccccc34)C(C3CCCCC3)N2C1=O` (stereo not given in full), the TGI is more than 100 µM.

As to `O=[N+]([O-])c1ccc2c(c1)c(OCc1ccccc1)nn2Cc1ccccc1`, the TGI was more than 100 µM.

`O=C1CCCc2cc3c(cc21)CC1(Cc2ccccc2C1)C3` returned a TGI of more than 100 µM.

For `COC(=O)c1ccccc1CC1Cc2ccc3c(c2C1=O)CCCC3` (stereo not given), the TGI was more than 100 µM.

Turning to `COc1ccc2c(c1)/C(=C/CCN(C)C)c1ccccc1S2`, the TGI is more than 100 µM.

For `N#CC1(C#N)N[C@@H](c2ccsc2)[C@H]2C(=O)N(c3ccccc3)C(=O)[C@H]21`, the TGI is more than 100 µM.

For the compound `CC1(C)OC(=O)N(c2ccccc2)C12C=Cc1cc([N+](=O)[O-])cc([N+](=O)[O-])c1O2` (stereo not given), the TGI is more than 100 µM.

The subject of the next assay is A498 renal. The assay is described as follows: NCI tumour cell line growth inhibition, 48 h.
With `COc1ccc(-c2cc(O)c3nc4ccccc4n3c2)cc1`, the TGI was more than 100 µM.

Regarding `CCOC(=O)c1csc(NC(=O)CN2CCOCC2)n1`, the TGI was more than 100 µM.

Take `CC(=O)NC(Cc1ccc(O)cc1)C(=O)O` (stereo not given): the TGI was more than 100 µM.

As to `Cc1ccc(N=NC(=Nc2ccccc2)c2ccc(N(CCC#N)CCC#N)cc2)cc1`, the TGI is more than 100 µM.

`O=c1ccc(-c2ccccc2)n[nH]1` came in with a TGI of more than 100 µM.

`CC(=O)O[C@@H]1[C@H](C(C)C)[C@@H](OC(C)=O)C/C(C)=C/CC[C@]2(C)O[C@@H]12` yielded a TGI of more than 100 µM.

In turn, `C[C@@H]1CC[C@]2(C(=O)O)CC[C@]3(C)C(=CC[C@@H]4[C@@]5(C)CC[C@H](O)C(C)(C)[C@@H]5CC[C@]43C)[C@@H]2[C@]1(C)O` registered a TGI of 33.3 µM.

With `O=C(N/N=C(/COc1ccc(Cl)cc1)N=Cc1ccncc1)c1ccncc1`, the TGI is more than 100 µM.

For the compound `C1CN(c2nc3c(nnc4nc(N5CCOCC5)sc43)s2)CCO1`, the TGI was more than 100 µM.

Compound `COc1ccc2cc(NC(=O)N/N=C\c3ccc([N+](=O)[O-])cc3)ccc2c1` gave a TGI of more than 100 µM.

`COc1ccc(N/N=C2\CCOc3ccc(C)cc3C2=O)cc1` had a TGI of more than 100 µM.

Regarding `ClCCN1CCC2(CC1)SSC1(CCN(CCCl)CC1)S2`, the TGI was more than 100 µM.

In the case of `Nc1nc(SCCc2ccccc2)c2[nH]cnc2n1`, the TGI is 61 µM.

Take `Cc1nc2n(c1/C=C1/C(=O)Nc3cccc(Cl)c31)CCS2`: the TGI was more than 100 µM.

Take `CCOC(=O)C(SCCO)C(C(=O)OCC)n1cnc2c(=O)[nH]c(NC(C)=O)nc21` (stereo not given): the TGI was more than 100 µM.

The compound `c1ccc(-c2nc(-c3ccccc3SSc3ccccc3-c3nc(-c4ccccc4)nn3-c3ccccc3)n(-c3ccccc3)n2)cc1` had a TGI of more than 100 µM.

For the compound `COCO[C@@H]1C[C@H]2C(=O)Nc3ccccc3C(=O)N2C1`, the TGI was more than 100 µM.

`Cc1ccc(Cl)c2[nH]c(-c3ccccc3)cc(=O)c12` had a TGI of more than 100 µM.

As for `CC(C)(C)OC(=O)NCCCCC1NC(=O)[C@@H]2Cc3c([nH]c4ccccc34)C(C3CCCCC3)N2C1=O` (stereo not given in full), the TGI is more than 100 µM.

For `O=[N+]([O-])c1ccc2c(c1)c(OCc1ccccc1)nn2Cc1ccccc1`, the TGI is more than 100 µM.
